The values below come from PMC12707362, “Targeting Aurora Kinases as Essential Cell‐Cycle Regulators to Deliver Multi‐Stage Antimalarials Against Plasmodium Falciparum” (Angewandte Chemie (International Ed. in English), 2025).

SMILES strings stand for the structures. Values after ≈ are worked out from the molar mass of the structure shown. Read-outs that look alike come from different tables or passages of the source. Bounds are passed on as bounds.

The test system of data set [1] is intracellular hemozoin formation in P. falciparum. The data set can be described thus: Cellular heme fractionation assay. In kind it is cell-based, Plasmodium falciparum. To be noted: intracellular fractions. As to the method:
The assay set-up followed that described in^[30,32] optimised to a multi-well colourimetric assay for determining heme species in P. falciparum. Briefly, P. falciparum ring-staged parasites were incubated at 2xIC50 value of the test inhibitor for 24 hours. Thereafter, the incubated parasites (trophozoites) were harvested and isolated through various steps of a cellular fractionation process. The cellular fractionations allow for direct quantification of the three major heme species in the trophozoites, namely hemoglobin, free heme, and hemozoin. These heme species can be determined spectroscopically using the aqueous pyridine-ferrochrome method. This method is based on the principle that aqueous pyridine forms a low-spin complex with heme but not hemozoin, and since the absorbance obeys Beer’s law, it allows for the quantification of heme concentration in solution. The various heme fractions were recovered and measured as follows, after the P. falciparum trophozoite cells were harvested following exposure to probe inhibitors:
Water (100 µL) was added to lyse the cells, and the suspension was sonicated for 5 min. This was followed by the addition of 50 µL 0.2M HEPES buffer pH 7.5, and then centrifugation at 3600 rpm for 20 min. The resulting supernatant (containing hemoglobin) was then transferred into an adjacent set of wells on the same plate. To which 50 µL of each of 4% SDS, 0.3 M NaCl and 25% pyridine were added, respectively. Thereafter, 200 µL of the resulting solution ([…]) was transferred to a set of wells on a separate 96-well plate for UV-vis analysis^[32,33].
The pellet from the centrifugation step described above consists of heme and hemozoin. […] Then 50 µL each of HEPES 0.2 M pH 7.5, 0.3 M NaCl, and 25% pyridine were added, respectively. The mixture was centrifugated at 3600 rpm and the supernatant (250 µL) was transferred to adjacent wells on a separate 96-well plate. Thereafter, 150 µL of water was added and 200 µL of the mixture transferred to a set of wells on a separate plate for UV-vis analysis^[32,33].
To the remaining pellet, 50 µL each of water and 0.3 M NaOH were added, and the mixture was sonicated for 15 min. After 30 min of incubation at room temperature, 50 µL each of HEPES 0.2 M pH 7.5, 0.3 M HCl, and 25% pyridine were added, respectively. To the resulting mixture (250 µL), 150 µL of water was then added, and 200 µL of this was transferred to a set of wells on a separate 96-well plate for UV-vis analysis^[32,33].
Cell counts for the assay were performed using the flow cytometry method described in^[33]. Cell counting determines the number of trophozoites per sample and, therefore, allows for the quantification of the amount of heme found in each individual cell.

Data set [2] concerns the target recombinant PfArk1 (Plasmodium falciparum, UniProt C6KSQ1). The data set can be described thus: KinaseSeeker three-hybrid split-luciferase competitive binding assay, PfArk1.
Protocol: Supplementary Figure S3: (A) Single-point activity profile of selected inhibitors at 1 µM against recombinant PfArk-1 and PfArk-3 proteins, utilising a three-hybrid split-luciferase competitive binding assay (KinaseSeeker™).
Data set [3] is described as follows: eLogD. The class given is physicochemical. From the text: (§1) In vitro ADME analysis for logD, kinetic solubility (PBS, pH 7.4), human liver microsome clearance and t1/2, rat hepatocyte clearance and t1/2, and protein binding in Albumax media (simulating the malaria parasite culture media) was all performed as per standard assays by TCG LifeSciences.
Data set [4] can be described thus: Kinetic solubility. In kind it is physicochemical. As to conditions: aqueous buffer, kinetic from dmso stock; PBS, pH 7.4; read-out: Kin sol pH 7.4.
Excerpt: as §1

A short description of data set [5]: Human liver microsome clearance. In kind it is in vitro ADME. To be noted: human liver microsomes; for microsomal CLint: read-out: HL microsome CLint; for half-life: read-out: HL microsome t1/2.
Excerpt: as §1
For orientation: Liver microsomes are a subcellular fraction often used to study metabolism.

The test system of data set [6] is P. falciparum drug-sensitive NF54 (PfNF54) asexual intra-erythrocytic parasites. The data set can be described thus: SYBR Green I proliferation assay, PfNF54 asexual blood stages. In kind it is cell-based, Plasmodium falciparum. From the text: Figure 1 Activity profile of Aur class anticancer inhibitors across the life cycle of Plasmodium falciparum parasites. a) Activity (IC50) of inhibitors (grouped based on specificity against human Aur) against P.falciparum drug‐sensitive (PfNF54) asexual intra‐erythrocytic parasites as measured with SYBR Green I fluorescence as an indicator of viability and proliferation. […] ABS, asexual blood stages of the parasite; HsAur, human Aur.
P. falciparum drug sensitive NF54 (PfNF54) and drug-resistant Dd2 (PfDd2, chloroquine, pyrimethamine and mefloquine resistant) strains were cultured in vitro in human O^+/A^+ erythrocytes (5% hematocrit) in complete medium at 2–5% parasitemia, 37 °C, shaking at 60 rpm under hypoxic conditions (90% N2, 5% O2 and 5% CO2). […] Gametocytogenesis was followed with daily media changes (including glucose) and ABS parasites removed with 50 mM N-acetylglucosamine (day 1–4 for stage II/III; days 3–7 for stage IV/V).
All inhibitors were dissolved in dimethyl sulfoxide (DMSO). […] Ring-stage ABS parasites (1% parasitemia, 1% hematocrit) were treated with compounds for 96 h at 37 °C with chloroquine disulphate (0.5 μM) as positive drug control. […] Luciferase activity was determined using a non-lysing D-luciferin substrate (1 mM in 0.1 M citrate buffer, pH 5.5, 100 μL) and bioluminescence was detected with a GloMax® - Multi Detection System with Instinct® software.

The subject of data set [7] is asexual intra-erythrocytic parasites. Briefly: Fixed-ratio isobologram analysis. To be noted: additivity/indifference 0.8–1.4, antagonism >1.4.
Protocol: Isobolograms were generated by plotting paired FIC values linearly, utilizing the average of three biological replicates, each performed in technical duplicates. The paired FIC values for each drug combination were analyzed, and the mean FIC values (ΣFIC) were calculated to delineate synergism (<0.8), additivity/indifference (0.8–1.4), or antagonism (>1.4).
A short description of data set [8]: Rat hepatocyte clearance. The class given is in vitro ADME. To be noted: rat hepatocytes; for half-life: read-out: Rat hepatocyte t1/2.
Excerpt: as §1

In data set [9] the test system is hepatocellular carcinoma (HepG2) cells. Briefly: Cytotoxicity counter-screening (MTT), HepG2. As to conditions: read-out: HepG2 CC50; 48 h, MTT. As to the method:
HepG2 and CHO cells were maintained at 37 °C, under a humidified atmosphere of 5% CO2, in DMEM high glucose media (Gibco) supplemented with 10% heat-inactivated FBS and 1% (v/v) Penicillin-Streptomycin antibiotics. […] The supernatant was discarded, and the cell pellet was resuspended in 1 mL DMEM media for cell counting by Trypan Blue. To determine the toxicity, cells were resuspended and seeded at a concentration of 1x10^4 cells/well in a 96-well plate and incubated for 24 h^[9,10]. Cells were treated in duplicate with a 10-fold serial dilution starting at 100 ug/mL of inhibitor in new media. After 48 h incubation, the viable cells were measured using the MTT tetrazolium reduction assay, where sterile 25 µL of a 5 mg/mL MTT was added to each well and incubated for 4 h before the […] formazan crystals were dissolved with 100 µL DMSO (Merck) per well. The absorbance, a measure of intracellular reduction of MTT, was measured at 540 nm (Multiskan GO). Emetine (50 µM) was included as a positive drug control, and the background was subtracted from all data before being normalised to the untreated^[9,10].
On the technique in general: The purpose of a counterscreen is to sort out artefacts and off-target activity.

[10] abbreviates: Plasmodium falciparum, NF54, 96 h, ring-stage ABS, 96 h, SYBR Green I, read-out: Pf NF54 ABS IC50.
[11] abbreviates: ring-stage ABS, 96 h, SYBR Green I, read-out: Pf NF54 ABS IC50.
The mark [12] stands for this setting: Plasmodium falciparum, NF54, bounds stated in text, read-out: Pf NF54 ABS IC50.
Setting [13] is: Plasmodium falciparum, NF54, 96 h, read-out: Pf NF54 ABS IC50.
The mark [14] stands for this setting: Plasmodium falciparum, NF54, read-out: Pf NF54 ABS IC50.

Chain of recombinant PfArk1 (C6KSQ1 entry or part of it): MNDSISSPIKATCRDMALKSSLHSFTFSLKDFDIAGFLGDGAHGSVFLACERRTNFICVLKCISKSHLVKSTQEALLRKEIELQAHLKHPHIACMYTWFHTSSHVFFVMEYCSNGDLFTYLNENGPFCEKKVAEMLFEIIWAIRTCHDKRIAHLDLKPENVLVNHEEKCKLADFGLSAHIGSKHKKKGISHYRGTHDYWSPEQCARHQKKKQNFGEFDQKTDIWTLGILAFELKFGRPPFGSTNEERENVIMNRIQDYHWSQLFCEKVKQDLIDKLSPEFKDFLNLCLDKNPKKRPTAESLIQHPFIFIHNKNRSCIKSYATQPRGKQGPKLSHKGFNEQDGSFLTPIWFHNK

Take `COc1cc(N2CCC(N3CCN(C)CC3)CC2)ccc1Nc1ncc(Cl)c(Nc2ccccc2S(=O)(=O)C(C)C)n1` [TAE684, NVP-TAE684]: in data set [1], the free heme level result was “significant increase in free heme” and the hemozoin level result is “decrease in hemozoin formation”. In addition, the IC50 in data set [2] is 146 ± 20 nM. Also, the “eLogD pH 7.4” value in data set [3] worked out at 3.4. Moreover, the solubility kinetic in data set [4] was determined as 198 µM (≈ 122 µg/mL). Besides, in data set [5], the microsomal CLint was 25.4 µL/min/mg and the half-life turned out to be 55 min. Moreover, the half-maximal inhibitory concentration (IC50) in data set [6] (setting [10]) turned out to be 280 ± 13 nM. Besides, in data set [6] (setting [11]), the IC50 came to 279 nM. For the same molecule, in data set [7], the “ΣFIC50 in combination with CQ” value came out at 1.3 and the “ΣFIC50 in combination with ML10” value turned out to be 1.3. Also, in data set [8], the “Rat hepatocyte CLint” value is listed as 3.5 µL min^−1/10e6 cells and the half-life came out at 197 min.
Take `O=C(Nc1cccc(Nc2nccc(Nc3cccc(C(F)(F)F)c3)n2)c1)C1CC1` [Aki III, Aurora kinase inhibitor III]: the IC50 in [6] (setting [10]) is 819 nM; in [6] (setting [12]), under 1000 nM.
Turning to `COc1cc2c(Nc3ccc(NC(=O)c4ccccc4)cc3)ncnc2cc1OCCCN1CCOCC1` [ZM-39, ZM-447439], the free heme level result in data set [1] is “significant increase in free heme”. In data set [1], the hemozoin level entry is listed as “decrease in hemozoin formation”. In addition, in data set [9], the CC50 was 26.5 µM. Besides, the figures for the IC50 in [6] (setting [10]), in data set [6] (setting [12]) and in [6] (setting [11]) were under 250 nM, under 1000 nM and 235 nM, respectively. In addition, in data set [7], the “ΣFIC50 in combination with CQ” value came out at 1.4.
With `CCN(CCO)CCCOc1ccc2c(Nc3cc(CC(=O)Nc4cccc(F)c4)n[nH]3)ncnc2c1` [AZD-1152, AZD-1152-HQPA], the CC50 in data set [9] stood at 25.9 µM. The IC50 is 753 nM in data set [6] (setting [13]) and under 1000 nM in data set [6] (setting [14]).
Take `O=C(Nc1c[nH]nc1-c1nc2ccc(CN3CCOCC3)cc2[nH]1)NC1CC1` [AT83, AT9283]: the “inhibition of PfArk1” value in [2] (single point 1 µM) is reported as 30%. Moreover, the “eLogD pH 7.4” value in data set [3] was found to be 2.2. The solubility kinetic in data set [4] worked out at 22.2 µM (≈ 8.47 µg/mL). Further, in data set [5], the microsomal CLint amounted to 3.5 µL/min/mg and the half-life stood at 395 min. In data set [8], the “Rat hepatocyte CLint” value is 12.6 µL min^−1/10e6 cells and the half-life worked out at 55 min.
Take `CCN1CCN(C(=O)Cc2ccc(Nc3ncc(F)c(Nc4ccc(C(=O)Nc5ccccc5Cl)cc4)n3)cc2)CC1` [AAi I, Aurora A Inhibitor I]: the results for the IC50 in data set [6] (setting [13]) and in [6] (setting [14]) were 475 ± 90.1 nM and under 1000 nM, respectively.

The term IC50 denotes the point on the concentration scale where inhibition reaches its midpoint. One may read the CC50 as the concentration at which the toxic effect on the cells reaches its halfway point.
